Molecules are shown by their SMILES.

The test deals with T1, IGF-1R (Homo sapiens, UniProt P08069).
T1 construct: expressed in transfected cells; host or cells: Hek293 (Hek293-IGF1R)
T1 sequence (P08069 31-1367): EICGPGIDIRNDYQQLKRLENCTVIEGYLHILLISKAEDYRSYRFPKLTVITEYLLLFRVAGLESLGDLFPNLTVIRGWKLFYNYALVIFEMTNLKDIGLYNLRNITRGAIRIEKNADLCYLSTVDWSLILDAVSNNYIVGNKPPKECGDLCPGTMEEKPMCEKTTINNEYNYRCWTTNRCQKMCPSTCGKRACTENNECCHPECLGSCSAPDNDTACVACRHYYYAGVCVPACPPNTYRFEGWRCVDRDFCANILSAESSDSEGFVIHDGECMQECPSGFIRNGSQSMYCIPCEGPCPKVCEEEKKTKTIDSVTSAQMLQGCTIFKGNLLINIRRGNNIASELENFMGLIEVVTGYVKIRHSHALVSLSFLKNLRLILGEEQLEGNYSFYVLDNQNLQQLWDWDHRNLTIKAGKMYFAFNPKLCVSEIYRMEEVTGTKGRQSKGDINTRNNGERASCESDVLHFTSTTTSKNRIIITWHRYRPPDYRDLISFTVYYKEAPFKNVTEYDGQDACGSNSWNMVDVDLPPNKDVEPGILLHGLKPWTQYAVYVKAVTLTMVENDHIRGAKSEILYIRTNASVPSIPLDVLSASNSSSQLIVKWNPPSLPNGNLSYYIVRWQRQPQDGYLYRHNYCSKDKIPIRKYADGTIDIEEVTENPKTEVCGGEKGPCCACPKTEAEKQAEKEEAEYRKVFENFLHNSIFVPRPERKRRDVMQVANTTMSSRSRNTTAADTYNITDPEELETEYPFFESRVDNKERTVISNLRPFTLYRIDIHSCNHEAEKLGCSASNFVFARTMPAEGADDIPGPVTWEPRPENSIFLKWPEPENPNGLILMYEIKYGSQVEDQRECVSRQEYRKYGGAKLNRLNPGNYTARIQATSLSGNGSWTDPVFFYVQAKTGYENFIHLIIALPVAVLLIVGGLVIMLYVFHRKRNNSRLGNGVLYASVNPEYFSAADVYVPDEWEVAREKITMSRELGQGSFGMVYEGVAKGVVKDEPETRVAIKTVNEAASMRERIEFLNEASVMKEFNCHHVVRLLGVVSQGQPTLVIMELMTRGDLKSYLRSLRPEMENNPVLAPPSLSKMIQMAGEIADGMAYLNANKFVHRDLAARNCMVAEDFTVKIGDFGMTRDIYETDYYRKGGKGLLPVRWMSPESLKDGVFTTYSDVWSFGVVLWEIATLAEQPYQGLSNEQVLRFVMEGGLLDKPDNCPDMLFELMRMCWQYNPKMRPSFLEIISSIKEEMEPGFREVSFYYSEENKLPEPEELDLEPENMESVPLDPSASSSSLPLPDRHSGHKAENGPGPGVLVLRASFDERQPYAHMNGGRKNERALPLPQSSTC
The experiment in a line: Cellular IGF-1R assay: capture ELISA (MSD) of receptor phosphorylation in Hek293 cells. It counts as cell-based. The settings on record: Hek293-IGF1R cells, 1 h pre-incubation, 10 min IGF stimulation, pIGF1R capture ELISA. In outline:
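IC50 from 4-parameter fit of IGF1R phosphorylation, normalised to IGF-stimulated and unstimulated controls, measured by MSD capture ELISA on lysates. Hek293-IGF1R cells in starvation medium got compound 1 h (top 10 μM, 3-fold steps, 0.1% DMSO) before a 10 min pulse of 1.0 ng/μL IGF.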
(In general: In an ELISA, binding on a coated surface is turned into a signal by an enzyme label.)
For orientation: IC50 means the point on the concentration scale where inhibition reaches its midpoint. As to `CN1CCN([C@H]2CC[C@@H](n3cc(-c4cccc(OCC56CCC(CC5)O6)c4)c4c(N)ncnc43)CC2)CC1=O` [Example 143, 4-((1S,4S)-4-(5-(3-(7-oxabicyclo[2.2.1]heptan-1-ylmethoxy)phenyl)-4-amino-7H-pyrrolo[2,3-d]pyrimidin-7-yl)cyclohexyl)-1-methylpiperazin-2-one], the IC50 lay in the range of 319 to 534 nM.

Compound `CC(=O)N[C@H]1C[C@@H](n2cc(-c3cccc(OCC45CCC(CC4)O5)c3)c3c(N)ncnc32)C1` (relative stereo) [Example 223, N-(cis-3-{4-amino-5-[3-(7-oxa-bicyclo[2.2.1]hept-1-ylmethoxy)-phenyl]-pyrrolo[2,3-d]pyrimidin-7-yl}-cyclobutyl)-acetamide] showed an IC50 of 308 nM. This lies in the sub-micromolar range.

In turn, `NC(=O)[C@@H]1[C@H](O)CCN1C[C@H]1C[C@@H](n2cc(-c3cccc(OCC4CCCO4)c3)c3c(N)ncnc32)C1` (stereo partly drawn) [Example 82, (2S,3R)-1-(cis-3-{4-amino-5-[3-(tetrahydro-furan-2-ylmethoxy)-phenyl]-pyrrolo[2,3-d]pyrimidin-7-yl}-cyclobutylmethyl)-3-hydroxy-pyrrolidine-2-carboxylic acid amide] showed an IC50 of 205 nM.

`NC(=O)[C@H]1CCCN1C[C@H]1C[C@H](n2cc(-c3cccc(OCC45CCC(CC4)O5)c3)c3c(N)ncnc32)C1` [Example 79, (R)-1-(trans-3-{4-amino-5-[3-(7-oxa-bicyclo[2.2.1]hept-1-ylmethoxy)-phenyl]-pyrrolo[2,3-d]pyrimidin-7-yl}cyclobutylmethyl)-pyrrolidine-2-carboxylic acid amide] displayed an IC50 of 7 nM.

In turn, `Nc1ncnc2c1c(-c1cccc(OCC3CCCCO3)c1)cn2[C@H]1C[C@@H](CN2CC(O)C2)C1` (relative stereo) [Example 28, 1-(cis-3-{4-amino-5-[3-(tetrahydro-pyran-2-ylmethoxy)-phenyl]-pyrrolo[2,3-d]pyrimidin-7-yl}-cyclobutylmethyl)-azetidin-3-ol] yielded an IC50 of 294 nM.

`CC(C)C(=O)NCC1CC(n2cc(-c3cccc(OCC45CCC(CC4)O5)c3)c3c(N)ncnc32)C1` (stereo not shown) [Example 164, N-(3-{4-amino-5-[3-(7-oxa-bicyclo[2.2.1]hept-1-ylmethoxy)-phenyl]-pyrrolo[2,3-d]pyrimidin-7-yl}-cyclobutylmethyl)-isobutyramide]: the IC50 stood at 143 nM.

`CN1CCN([C@H]2C[C@@H](n3cc(-c4cccc(OCC56CCC(CC5)O6)c4)c4c(N)ncnc43)C2)CC1=O` (relative stereo) [Example 195, cis-4-(3-{4-Amino-5-[3-(7-oxa-bicyclo[2.2.1]hept-1-ylmethoxy)-phenyl]-pyrrolo[2,3-d]pyrimidin-7-yl}-cyclobutyl)-1-methyl-piperazin-2-one] showed an IC50 of 385 nM.

`Nc1ncnc2c1c(-c1cccc(OCC34CCC(CC3)O4)c1)cn2C1CC(CNC(CO)CO)C1` (stereo not shown) [Example 168, 2-[(3-{4-amino-5-[3-(7-oxa-bicyclo[2.2.1]hept-1-ylmethoxy)-phenyl]-pyrrolo[2,3-d]pyrimidin-7-yl}-cyclobutylmethyl)-amino]-propane-1,3-diol] had an IC50 of 109 nM. Against the preceding compound, the IC50 is about 3.5-fold lower.

In turn, `CC1(O)CC(n2cc(-c3cccc(OCC45CCC(CC4)O5)c3)c3c(N)ncnc32)C1` (stereo not shown) [Example 219, (E)-3-(4-amino-5-[3-(7-oxa-bicyclo[2.2.1]hept-1-ylmethoxy)-phenyl]-pyrrolo[2,3-d]pyrimidin-7-yl}-1-methyl-cyclobutanol] registered an IC50 of 579 nM.

Compound `CC1(C)CCC(COc2cccc(-c3cn([C@H]4C[C@@H](CN5CCC(F)CC5)C4)c4ncnc(N)c34)c2)O1` (single isomer, unassigned) [Example 74, 5-[3-(5,5-dimethyl-tetrahydro-furan-2-ylmethoxy)-phenyl]-7-[cis-3-(4-fluoro-piperidin-1-ylmethyl)-cyclobutyl]-7H-pyrrolo[2,3-d]pyrimidin-4-ylamine] displayed an IC50 of 52 nM.
